Data from PMC7069248 (Chemical Science, 2019).

Columns and labels:
[1] = target: T1, Human pancreatic α-amylase (HPA) (Homo sapiens, UniProt P04746); assay: biochemical
T1 sequence (P04746 16-511): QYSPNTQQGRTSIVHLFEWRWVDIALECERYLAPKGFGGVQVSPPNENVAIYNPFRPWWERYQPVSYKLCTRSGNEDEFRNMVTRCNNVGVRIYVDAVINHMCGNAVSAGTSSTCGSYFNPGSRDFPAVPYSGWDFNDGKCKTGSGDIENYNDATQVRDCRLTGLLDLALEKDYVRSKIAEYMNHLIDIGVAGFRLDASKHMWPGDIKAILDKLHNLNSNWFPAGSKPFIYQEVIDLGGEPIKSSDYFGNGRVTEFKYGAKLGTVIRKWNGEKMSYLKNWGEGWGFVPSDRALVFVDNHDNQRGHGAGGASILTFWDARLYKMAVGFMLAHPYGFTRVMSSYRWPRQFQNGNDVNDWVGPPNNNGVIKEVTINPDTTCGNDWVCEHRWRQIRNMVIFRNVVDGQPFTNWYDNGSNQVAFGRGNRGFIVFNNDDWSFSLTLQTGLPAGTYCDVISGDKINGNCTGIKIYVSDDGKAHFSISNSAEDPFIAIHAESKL

[2] = target: Green coffee bean α-galactosidase (Coffea arabica, UniProt Q42656); assay: Specificity analysis of M10: green coffee bean α-galactosidase; format: biochemical; details: read-out: M10 IC50; 37 °C, pH 7
Chain of Green coffee bean α-galactosidase (Q42656 16-378): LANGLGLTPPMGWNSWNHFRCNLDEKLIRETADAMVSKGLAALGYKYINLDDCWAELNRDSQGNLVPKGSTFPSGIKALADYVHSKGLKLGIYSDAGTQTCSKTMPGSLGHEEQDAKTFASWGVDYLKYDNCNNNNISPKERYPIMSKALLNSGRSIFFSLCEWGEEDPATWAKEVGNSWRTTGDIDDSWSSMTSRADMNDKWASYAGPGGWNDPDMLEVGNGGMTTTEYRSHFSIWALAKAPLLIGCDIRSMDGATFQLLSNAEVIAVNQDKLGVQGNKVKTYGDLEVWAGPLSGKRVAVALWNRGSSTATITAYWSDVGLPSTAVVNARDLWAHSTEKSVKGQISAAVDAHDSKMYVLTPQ

[3] = target: H. sapiens C-term sucrase-isomaltase (Homo sapiens, UniProt P14410); assay: Specificity analysis: C-term sucrase-isomaltase; format: biochemical; details: read-out: M10 IC50; 37 °C, pH 7, PNP α-Glc
Chain of H. sapiens C-term sucrase-isomaltase (P14410 1008-1827 limits assumed): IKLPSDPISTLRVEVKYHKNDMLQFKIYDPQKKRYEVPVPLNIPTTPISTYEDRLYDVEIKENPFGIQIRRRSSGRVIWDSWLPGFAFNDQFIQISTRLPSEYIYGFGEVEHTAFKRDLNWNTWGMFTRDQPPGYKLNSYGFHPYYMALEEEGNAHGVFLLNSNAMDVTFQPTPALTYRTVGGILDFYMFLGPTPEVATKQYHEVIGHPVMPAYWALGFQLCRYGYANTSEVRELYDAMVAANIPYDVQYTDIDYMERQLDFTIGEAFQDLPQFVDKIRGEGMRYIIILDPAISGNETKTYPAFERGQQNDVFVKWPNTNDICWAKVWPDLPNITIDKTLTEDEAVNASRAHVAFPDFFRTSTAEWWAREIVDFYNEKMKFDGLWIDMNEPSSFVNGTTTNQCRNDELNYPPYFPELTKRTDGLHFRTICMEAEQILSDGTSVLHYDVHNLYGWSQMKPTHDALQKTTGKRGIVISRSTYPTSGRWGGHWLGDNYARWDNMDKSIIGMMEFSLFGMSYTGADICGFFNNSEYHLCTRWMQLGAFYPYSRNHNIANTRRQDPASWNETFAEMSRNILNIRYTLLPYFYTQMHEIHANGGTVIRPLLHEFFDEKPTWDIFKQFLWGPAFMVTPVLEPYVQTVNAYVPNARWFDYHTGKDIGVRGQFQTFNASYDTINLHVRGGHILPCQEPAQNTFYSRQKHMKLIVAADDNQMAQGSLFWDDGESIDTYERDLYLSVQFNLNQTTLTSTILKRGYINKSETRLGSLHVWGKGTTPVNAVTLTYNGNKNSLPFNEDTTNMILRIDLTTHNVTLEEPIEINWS

Jack bean α-mannosidase = target: T2, Jack bean α-mannosidase (Canavalia ensiformis, UniProt C0HJB3); assay: Specificity analysis of M10: Jack bean α-mannosidase; format: biochemical; details: read-out: M10 IC50; 37 °C, pH 7
T2 sequence (C0HJB3 1-981): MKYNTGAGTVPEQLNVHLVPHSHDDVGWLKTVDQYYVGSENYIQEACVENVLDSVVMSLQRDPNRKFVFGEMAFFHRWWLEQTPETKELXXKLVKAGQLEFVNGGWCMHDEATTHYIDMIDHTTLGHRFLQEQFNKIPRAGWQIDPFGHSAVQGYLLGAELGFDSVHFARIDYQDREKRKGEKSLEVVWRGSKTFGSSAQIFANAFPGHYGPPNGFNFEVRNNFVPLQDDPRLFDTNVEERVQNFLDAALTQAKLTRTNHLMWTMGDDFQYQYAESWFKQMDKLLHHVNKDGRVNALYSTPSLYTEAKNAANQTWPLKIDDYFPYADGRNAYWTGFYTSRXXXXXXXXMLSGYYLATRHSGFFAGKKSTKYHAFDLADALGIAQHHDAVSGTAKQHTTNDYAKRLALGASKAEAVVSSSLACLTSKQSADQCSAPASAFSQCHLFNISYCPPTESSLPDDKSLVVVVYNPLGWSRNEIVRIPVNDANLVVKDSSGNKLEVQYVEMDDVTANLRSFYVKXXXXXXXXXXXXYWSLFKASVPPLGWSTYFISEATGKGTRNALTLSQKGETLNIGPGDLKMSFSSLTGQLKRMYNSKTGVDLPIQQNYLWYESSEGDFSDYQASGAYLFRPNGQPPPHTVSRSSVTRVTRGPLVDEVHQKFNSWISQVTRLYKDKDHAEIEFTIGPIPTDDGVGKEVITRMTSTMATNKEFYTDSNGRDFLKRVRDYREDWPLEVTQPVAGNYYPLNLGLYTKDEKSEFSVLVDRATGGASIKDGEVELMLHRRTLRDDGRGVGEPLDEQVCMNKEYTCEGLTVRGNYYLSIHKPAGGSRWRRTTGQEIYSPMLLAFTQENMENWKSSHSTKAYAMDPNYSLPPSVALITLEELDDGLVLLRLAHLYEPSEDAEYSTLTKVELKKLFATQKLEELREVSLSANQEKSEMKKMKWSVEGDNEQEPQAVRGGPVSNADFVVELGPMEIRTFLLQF

E. coli β-galactosidase = E. coli β-galactosidase (Escherichia coli, UniProt P00722); assay: Specificity analysis of M10: E. coli β-galactosidase; details: read-out: M10 IC50; 37 °C, pH 7, 1.0 mM MgCl2
Chain of E. coli β-galactosidase (P00722 2-1024 limits assumed): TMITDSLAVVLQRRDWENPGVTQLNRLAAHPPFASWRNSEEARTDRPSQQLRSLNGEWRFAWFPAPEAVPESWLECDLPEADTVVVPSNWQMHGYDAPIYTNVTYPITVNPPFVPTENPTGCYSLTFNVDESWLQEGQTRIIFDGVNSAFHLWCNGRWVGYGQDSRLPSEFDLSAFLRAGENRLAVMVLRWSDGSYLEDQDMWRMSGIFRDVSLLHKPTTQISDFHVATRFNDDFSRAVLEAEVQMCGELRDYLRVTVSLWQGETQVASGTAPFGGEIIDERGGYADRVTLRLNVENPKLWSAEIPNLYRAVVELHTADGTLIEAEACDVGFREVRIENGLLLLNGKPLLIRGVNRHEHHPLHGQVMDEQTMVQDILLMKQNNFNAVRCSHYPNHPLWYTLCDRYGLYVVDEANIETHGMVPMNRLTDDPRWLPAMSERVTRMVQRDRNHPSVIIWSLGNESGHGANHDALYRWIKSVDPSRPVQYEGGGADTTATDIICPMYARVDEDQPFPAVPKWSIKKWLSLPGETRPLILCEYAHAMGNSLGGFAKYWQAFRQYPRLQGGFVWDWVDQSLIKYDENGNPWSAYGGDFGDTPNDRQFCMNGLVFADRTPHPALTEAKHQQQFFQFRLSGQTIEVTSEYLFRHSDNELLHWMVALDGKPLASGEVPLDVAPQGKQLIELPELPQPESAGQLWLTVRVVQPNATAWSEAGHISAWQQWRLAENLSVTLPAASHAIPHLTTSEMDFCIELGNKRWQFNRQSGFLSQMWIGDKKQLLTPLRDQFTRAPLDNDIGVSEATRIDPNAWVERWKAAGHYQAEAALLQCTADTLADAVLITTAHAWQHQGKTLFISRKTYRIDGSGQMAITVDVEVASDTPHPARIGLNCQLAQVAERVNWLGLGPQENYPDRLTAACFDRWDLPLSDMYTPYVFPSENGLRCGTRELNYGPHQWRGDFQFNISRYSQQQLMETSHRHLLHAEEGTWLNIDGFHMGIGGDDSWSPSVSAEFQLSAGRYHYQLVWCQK

[4] = target: T3, Agrobacterium β-glucosidase (Agrobacterium sp., UniProt P12614); assay: Specificity analysis of M10: Agrobacterium β-glucosidase; format: biochemical
T3 sequence (P12614 1-459): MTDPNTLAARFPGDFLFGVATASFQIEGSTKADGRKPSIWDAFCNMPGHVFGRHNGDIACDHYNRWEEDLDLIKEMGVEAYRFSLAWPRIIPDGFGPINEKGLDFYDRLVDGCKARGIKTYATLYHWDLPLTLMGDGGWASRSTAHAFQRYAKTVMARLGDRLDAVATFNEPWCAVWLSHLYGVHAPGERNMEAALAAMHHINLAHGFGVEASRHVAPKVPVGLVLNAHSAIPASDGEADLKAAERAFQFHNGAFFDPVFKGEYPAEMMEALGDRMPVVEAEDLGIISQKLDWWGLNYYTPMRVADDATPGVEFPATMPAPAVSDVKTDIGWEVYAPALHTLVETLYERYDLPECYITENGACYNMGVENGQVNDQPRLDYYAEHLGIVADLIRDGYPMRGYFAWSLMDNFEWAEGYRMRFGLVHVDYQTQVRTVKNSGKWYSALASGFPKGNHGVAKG

[5] = target: Homo sapiens maltase-glucoamylase (Homo sapiens, UniProt O43451); assay: Specificity analysis of M10: maltase-glucoamylase; format: biochemical; details: read-out: M10 IC50; 37 °C, pH 7, PNP α-Glc
[6] = target: T1, Human pancreatic α-amylase (HPA); details: relative to M09

O=C(/C=C/c1ccc(O)c(O)c1)NCCCOc1c(-c2ccc(O)c(O)c2)oc2cc(O)cc(O)c2c1=O [M03]
Ki [1]: 110 ± 10 µM

O=C(/C=C/c1ccc(O)c(O)c1)NCC(=O)NCCCOc1c(-c2ccc(O)c(O)c2)oc2cc(O)cc(O)c2c1=O [M05]
Ki [1]: 60 ± 10 µM

O=C(/C=C/c1ccc(O)c(O)c1)N[C@@H](Cc1ccc(O)cc1)C(=O)NCCCOc1c(-c2ccc(O)c(O)c2)oc2cc(O)cc(O)c2c1=O [M10]
IC50 [2]: > 7 µM | IC50 [3]: > 7 µM | IC50 (Jack bean α-mannosidase): > 7 µM | IC50 (E. coli β-galactosidase): > 7 µM | IC50 [4]: 35.4 ± 5.7 µM | IC50 [5]: > 7 µM | Further contribution to the binding affinity [6]: ~2.5 kcal mol^–1

O=C(/C=C/c1ccc(O)c(O)c1)N[C@@H](Cc1ccc(O)c(O)c1)C(=O)NCCCOc1c(-c2ccc(O)c(O)c2)oc2cc(O)cc(O)c2c1=O [M11]
Ki [1]: 0.06 µM | Further contribution to the binding affinity [6]: ~2.5 kcal mol^–1
